Values belong to the compound of their own block, whether it stands above or below them.
Experiments:
Assay in all cases: radiometric filter-binding kinase assay
[1] = molecular target: MAP3K7 TAB1 (human) (UniProt Q15750+O43318)
[2] = molecular target: MYLK (human) (UniProt Q15746)
[3] = molecular target: CHEK2 (human) (UniProt O96017)
[4] = molecular target: MARK2 (human) (UniProt Q7KZI7)
[5] = molecular target: TTK (human) (UniProt P33981)
[6] = tested on: PAK2 (human), Q13177 [T402E]
[7] = molecular target: MAPK10 (human) (UniProt P53779)
[8] = molecular target: TBK1 (human) (UniProt Q9UHD2)
[9] = molecular target: IKBKB (human) (UniProt O14920)
[10] = molecular target: MST4 (human) (UniProt Q9P289)
[11] = molecular target: EPHB3 (human) (UniProt P54753)
[12] = molecular target: CaMK1 (human) (UniProt Q14012)
[13] = molecular target: PKN2 (human) (UniProt Q16513)
[14] = molecular target: AURKB (human) (UniProt Q96GD4)
[15] = molecular target: PAK6 (human) (UniProt Q9NQU5)
[16] = molecular target: CSK (human) (UniProt P41240)
[17] = tested on: AKT1 (human), P31749 [S473D]
[18] = molecular target: PAK4 (human) (UniProt O96013)
[19] = molecular target: EPHA2 (human) (UniProt P29317)
[20] = molecular target: CHEK1 (human) (UniProt O14757)
[21] = molecular target: EPHB2 (human) (UniProt P29323)
[22] = tested on: LCK (mouse); settings: accession and sequence are those of the human protein
[23] = molecular target: MINK1 (human) (UniProt Q8N4C8)
[24] = molecular target: GCK (human) (UniProt Q12851)
[25] = molecular target: DYRK3 (human) (UniProt O43781)
[26] = molecular target: MAP3K11 (human) (UniProt Q16584)
[27] = tested on: ROCK2 (rat); settings: accession and sequence are those of the human protein
[28] = molecular target: TAOK1 (human) (UniProt Q7L7X3)
[29] = molecular target: MAP2K1 (human) (UniProt Q02750)
[30] = molecular target: NUAK1 (human) (UniProt O60285)
[31] = molecular target: CDK2 CCNA2 (human) (UniProt P20248+P24941)
[32] = molecular target: EPHB1 (human) (UniProt P54762)
[33] = molecular target: SRC (human) (UniProt P12931)
[34] = molecular target: MAPK8 (human) (UniProt P45983)
[35] = molecular target: EPHA4 (human) (UniProt P54764)
[36] = molecular target: RPS6KA3 KD1 KD2 (human) (UniProt P51812)

AKT1 (human), P31749 [S473D], sequence (P31749 whole entry S473D, looked up): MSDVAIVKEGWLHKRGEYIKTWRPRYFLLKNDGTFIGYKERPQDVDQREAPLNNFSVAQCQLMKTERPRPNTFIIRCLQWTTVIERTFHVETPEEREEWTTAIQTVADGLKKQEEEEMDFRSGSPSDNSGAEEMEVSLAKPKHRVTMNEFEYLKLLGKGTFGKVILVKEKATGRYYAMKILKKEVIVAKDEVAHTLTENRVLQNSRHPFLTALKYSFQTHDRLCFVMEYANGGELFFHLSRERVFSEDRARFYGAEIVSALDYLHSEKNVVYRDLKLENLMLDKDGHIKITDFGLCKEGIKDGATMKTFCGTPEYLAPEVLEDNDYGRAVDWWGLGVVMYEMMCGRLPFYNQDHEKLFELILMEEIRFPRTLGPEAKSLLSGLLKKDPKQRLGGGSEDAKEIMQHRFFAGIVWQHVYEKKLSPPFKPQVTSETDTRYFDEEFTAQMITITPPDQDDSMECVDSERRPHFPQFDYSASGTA
EPHB1 (human), sequence (P54762 whole entry, looked up): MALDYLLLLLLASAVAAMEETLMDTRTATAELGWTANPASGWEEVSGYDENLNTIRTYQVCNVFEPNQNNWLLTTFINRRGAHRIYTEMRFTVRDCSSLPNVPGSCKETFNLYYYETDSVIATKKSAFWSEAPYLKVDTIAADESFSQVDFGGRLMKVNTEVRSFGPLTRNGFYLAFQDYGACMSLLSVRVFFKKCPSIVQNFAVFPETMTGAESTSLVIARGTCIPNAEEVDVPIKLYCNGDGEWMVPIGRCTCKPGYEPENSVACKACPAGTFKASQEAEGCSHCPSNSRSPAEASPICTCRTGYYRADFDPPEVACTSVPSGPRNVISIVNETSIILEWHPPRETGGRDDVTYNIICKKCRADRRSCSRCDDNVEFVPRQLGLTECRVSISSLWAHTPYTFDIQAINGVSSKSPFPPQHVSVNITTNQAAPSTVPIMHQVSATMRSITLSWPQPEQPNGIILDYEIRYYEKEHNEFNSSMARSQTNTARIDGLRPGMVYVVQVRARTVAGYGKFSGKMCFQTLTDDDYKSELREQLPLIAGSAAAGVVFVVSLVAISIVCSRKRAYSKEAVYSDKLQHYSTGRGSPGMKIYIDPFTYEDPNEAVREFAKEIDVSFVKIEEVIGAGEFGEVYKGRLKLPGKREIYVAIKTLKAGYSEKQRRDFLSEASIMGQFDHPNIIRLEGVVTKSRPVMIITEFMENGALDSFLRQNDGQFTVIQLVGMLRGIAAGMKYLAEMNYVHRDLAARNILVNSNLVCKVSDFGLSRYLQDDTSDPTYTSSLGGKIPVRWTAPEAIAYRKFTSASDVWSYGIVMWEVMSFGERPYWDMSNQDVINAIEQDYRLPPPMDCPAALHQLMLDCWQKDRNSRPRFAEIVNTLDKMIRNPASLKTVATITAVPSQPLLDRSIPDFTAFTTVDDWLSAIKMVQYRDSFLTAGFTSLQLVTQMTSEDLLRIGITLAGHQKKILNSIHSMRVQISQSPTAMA
EPHA2 (human), sequence (P29317 whole entry, looked up): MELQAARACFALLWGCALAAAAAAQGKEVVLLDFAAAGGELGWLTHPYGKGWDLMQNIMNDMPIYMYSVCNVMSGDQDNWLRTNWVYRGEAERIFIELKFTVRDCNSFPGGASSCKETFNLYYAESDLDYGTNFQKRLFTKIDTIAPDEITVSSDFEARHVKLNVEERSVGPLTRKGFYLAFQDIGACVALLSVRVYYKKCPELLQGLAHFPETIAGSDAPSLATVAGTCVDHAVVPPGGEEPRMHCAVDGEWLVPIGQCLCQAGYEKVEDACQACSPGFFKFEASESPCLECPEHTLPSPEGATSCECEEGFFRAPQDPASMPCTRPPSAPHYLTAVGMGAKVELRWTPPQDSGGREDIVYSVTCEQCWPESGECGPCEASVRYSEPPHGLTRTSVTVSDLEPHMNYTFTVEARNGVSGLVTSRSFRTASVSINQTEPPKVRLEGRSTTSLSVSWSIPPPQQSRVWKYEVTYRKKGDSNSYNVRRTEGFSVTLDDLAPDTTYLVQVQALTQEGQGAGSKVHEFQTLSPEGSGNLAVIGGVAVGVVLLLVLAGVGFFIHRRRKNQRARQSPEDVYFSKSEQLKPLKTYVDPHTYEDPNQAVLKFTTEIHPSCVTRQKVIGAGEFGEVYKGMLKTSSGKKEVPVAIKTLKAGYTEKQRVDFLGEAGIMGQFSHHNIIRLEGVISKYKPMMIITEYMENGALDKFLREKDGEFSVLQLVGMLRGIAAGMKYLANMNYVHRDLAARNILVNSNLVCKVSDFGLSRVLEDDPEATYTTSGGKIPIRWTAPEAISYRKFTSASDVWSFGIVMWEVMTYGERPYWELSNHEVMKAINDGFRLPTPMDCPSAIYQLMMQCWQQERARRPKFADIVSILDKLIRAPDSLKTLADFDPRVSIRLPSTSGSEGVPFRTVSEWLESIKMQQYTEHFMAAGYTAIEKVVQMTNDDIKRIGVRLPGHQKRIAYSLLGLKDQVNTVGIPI
MAPK8 (human), sequence (P45983 whole entry, looked up): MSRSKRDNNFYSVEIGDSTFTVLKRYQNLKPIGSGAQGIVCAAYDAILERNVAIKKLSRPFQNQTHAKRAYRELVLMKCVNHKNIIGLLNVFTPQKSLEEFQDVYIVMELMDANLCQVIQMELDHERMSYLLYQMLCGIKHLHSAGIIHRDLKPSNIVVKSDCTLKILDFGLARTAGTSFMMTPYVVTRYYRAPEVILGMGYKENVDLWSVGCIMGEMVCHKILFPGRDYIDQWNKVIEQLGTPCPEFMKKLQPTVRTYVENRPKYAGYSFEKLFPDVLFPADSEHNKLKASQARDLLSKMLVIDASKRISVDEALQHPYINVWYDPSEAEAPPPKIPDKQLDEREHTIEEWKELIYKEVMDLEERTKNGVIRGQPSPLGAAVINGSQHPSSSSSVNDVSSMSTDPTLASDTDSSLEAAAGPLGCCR
TTK (human), sequence (P33981 whole entry, looked up): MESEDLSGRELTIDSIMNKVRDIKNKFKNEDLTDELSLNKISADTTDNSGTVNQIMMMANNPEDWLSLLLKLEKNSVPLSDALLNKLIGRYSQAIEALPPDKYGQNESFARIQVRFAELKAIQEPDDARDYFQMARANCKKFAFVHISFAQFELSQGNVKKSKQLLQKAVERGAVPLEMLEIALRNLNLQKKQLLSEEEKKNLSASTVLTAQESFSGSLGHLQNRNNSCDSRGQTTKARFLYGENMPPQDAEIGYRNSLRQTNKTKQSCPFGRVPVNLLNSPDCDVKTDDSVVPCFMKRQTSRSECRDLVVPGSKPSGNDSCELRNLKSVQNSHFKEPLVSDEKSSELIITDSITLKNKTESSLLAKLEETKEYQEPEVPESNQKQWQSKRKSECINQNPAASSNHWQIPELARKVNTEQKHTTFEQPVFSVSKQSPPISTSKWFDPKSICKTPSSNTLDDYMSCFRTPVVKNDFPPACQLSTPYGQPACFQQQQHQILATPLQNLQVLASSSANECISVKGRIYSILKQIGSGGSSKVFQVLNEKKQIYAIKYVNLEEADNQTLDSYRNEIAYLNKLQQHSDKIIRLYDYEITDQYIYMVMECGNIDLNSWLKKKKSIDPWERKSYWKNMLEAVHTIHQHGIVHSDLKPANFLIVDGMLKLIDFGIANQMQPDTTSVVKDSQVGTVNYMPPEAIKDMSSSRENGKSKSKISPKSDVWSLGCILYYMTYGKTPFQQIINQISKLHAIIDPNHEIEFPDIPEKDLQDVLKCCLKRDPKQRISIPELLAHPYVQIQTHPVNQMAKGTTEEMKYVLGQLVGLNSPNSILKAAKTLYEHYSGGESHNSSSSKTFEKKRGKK
MAP2K1 (human), sequence (Q02750 whole entry, looked up): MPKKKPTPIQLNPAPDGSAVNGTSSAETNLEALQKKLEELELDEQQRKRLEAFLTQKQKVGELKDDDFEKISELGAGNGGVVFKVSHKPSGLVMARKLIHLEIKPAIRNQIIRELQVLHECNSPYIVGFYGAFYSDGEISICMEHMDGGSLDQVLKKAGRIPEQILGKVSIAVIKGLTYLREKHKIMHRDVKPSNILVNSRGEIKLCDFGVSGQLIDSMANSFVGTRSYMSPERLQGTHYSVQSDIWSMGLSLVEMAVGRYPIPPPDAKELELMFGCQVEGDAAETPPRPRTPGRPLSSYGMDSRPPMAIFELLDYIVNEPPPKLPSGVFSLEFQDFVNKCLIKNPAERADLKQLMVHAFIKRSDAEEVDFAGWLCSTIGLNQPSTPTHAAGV
DYRK3 (human), sequence (O43781 whole entry, looked up): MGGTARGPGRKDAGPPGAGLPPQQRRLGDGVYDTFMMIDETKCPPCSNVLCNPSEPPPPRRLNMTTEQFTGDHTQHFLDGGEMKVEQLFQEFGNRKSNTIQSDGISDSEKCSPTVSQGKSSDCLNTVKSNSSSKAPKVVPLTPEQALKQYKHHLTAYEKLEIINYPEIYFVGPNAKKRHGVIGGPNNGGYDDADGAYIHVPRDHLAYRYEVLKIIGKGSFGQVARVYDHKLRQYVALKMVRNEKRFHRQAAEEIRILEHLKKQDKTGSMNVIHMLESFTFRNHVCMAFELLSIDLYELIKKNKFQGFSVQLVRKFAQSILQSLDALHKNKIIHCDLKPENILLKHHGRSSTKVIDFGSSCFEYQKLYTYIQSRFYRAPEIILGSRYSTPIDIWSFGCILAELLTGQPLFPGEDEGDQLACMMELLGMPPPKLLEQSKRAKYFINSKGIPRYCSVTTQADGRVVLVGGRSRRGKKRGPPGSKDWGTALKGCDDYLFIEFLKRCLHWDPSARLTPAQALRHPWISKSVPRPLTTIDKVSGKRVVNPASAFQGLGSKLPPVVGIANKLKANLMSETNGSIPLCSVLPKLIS
AURKB (human), sequence (Q96GD4 whole entry, looked up): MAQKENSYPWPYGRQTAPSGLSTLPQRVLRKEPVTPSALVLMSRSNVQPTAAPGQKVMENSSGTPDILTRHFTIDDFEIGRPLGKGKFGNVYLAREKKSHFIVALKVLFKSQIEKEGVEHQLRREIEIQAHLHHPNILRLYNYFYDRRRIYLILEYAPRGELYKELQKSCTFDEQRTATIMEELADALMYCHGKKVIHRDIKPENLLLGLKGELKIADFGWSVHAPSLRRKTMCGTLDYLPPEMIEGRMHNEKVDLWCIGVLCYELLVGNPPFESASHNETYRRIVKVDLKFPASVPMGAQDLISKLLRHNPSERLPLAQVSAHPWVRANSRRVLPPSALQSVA

residual activity ([1]; compound 1.0 µM): 74%
residual activity ([1]; compound 10.0 µM): 36%
residual activity ([2]; compound 1.0 µM): 109%
residual activity ([3]; compound 10.0 µM): 76%
residual activity ([4]; compound 1.0 µM): 94%
residual activity ([4]; compound 10.0 µM): 89%
residual activity ([5]; compound 1.0 µM): 90%
residual activity ([5]; compound 10.0 µM): 86%
residual activity ([6]; compound 1.0 µM): 107%
residual activity ([6]; compound 10.0 µM): 75%
residual activity ([7]; compound 1.0 µM): 85%
residual activity ([7]; compound 10.0 µM): 86%
residual activity ([8]; compound 10.0 µM): 83%
residual activity ([9]; compound 1.0 µM): 87%
residual activity ([9]; compound 10.0 µM): 88%
residual activity ([10]; compound 1.0 µM): 80%
residual activity ([10]; compound 10.0 µM): 72%
residual activity ([11]; compound 1.0 µM): 72%
residual activity ([11]; compound 10.0 µM): 82%
residual activity ([12]; compound 1.0 µM): 109%
residual activity ([12]; compound 10.0 µM): 21%
residual activity ([13]; compound 1.0 µM): 85%
residual activity ([13]; compound 10.0 µM): 63%
residual activity ([14]; compound 1.0 µM): 93%
residual activity ([14]; compound 10.0 µM): 88%
residual activity ([15]; compound 1.0 µM): 88%
residual activity ([15]; compound 10.0 µM): 28%
residual activity ([16]; compound 1.0 µM): 97%
residual activity ([16]; compound 10.0 µM): 85%
residual activity ([17]; compound 1.0 µM): 91%
residual activity ([17]; compound 10.0 µM): 53%
residual activity ([18]; compound 1.0 µM): 84%
residual activity ([18]; compound 10.0 µM): 70%
residual activity ([19]; compound 1.0 µM): 92%
residual activity ([19]; compound 10.0 µM): 94%
residual activity ([20]; compound 1.0 µM): 72%
residual activity ([20]; compound 10.0 µM): 44%
residual activity ([21]; compound 1.0 µM): 82%
residual activity ([21]; compound 10.0 µM): 91%
residual activity ([22]; compound 1.0 µM): 84%
residual activity ([22]; compound 10.0 µM): 247%
residual activity ([23]; compound 1.0 µM): 78%
residual activity ([23]; compound 10.0 µM): 47%
residual activity ([24]; compound 1.0 µM): 107%
residual activity ([24]; compound 10.0 µM): 92%
residual activity ([25]; compound 1.0 µM): 108%
residual activity ([26]; compound 1.0 µM): 94%
residual activity ([26]; compound 10.0 µM): 87%
residual activity ([27]; compound 1.0 µM): 88%
residual activity ([27]; compound 10.0 µM): 87%
residual activity ([28]; compound 1.0 µM): 103%
residual activity ([28]; compound 10.0 µM): 92%
residual activity ([29]; compound 1.0 µM): 108%
residual activity ([29]; compound 10.0 µM): 107%
residual activity ([30]; compound 1.0 µM): 85%
residual activity ([30]; compound 10.0 µM): 61%
residual activity ([31]; compound 1.0 µM): 95%
residual activity ([31]; compound 10.0 µM): 95%
residual activity ([32]; compound 1.0 µM): 72%
residual activity ([32]; compound 10.0 µM): 67%
residual activity ([33]; compound 1.0 µM): 103%
residual activity ([33]; compound 10.0 µM): 135%
residual activity ([34]; compound 1.0 µM): 107%
residual activity ([34]; compound 10.0 µM): 103%
residual activity ([35]; compound 1.0 µM): 80%
residual activity ([35]; compound 10.0 µM): 91%
SMILES: NCC(=O)Nc1ccc(-n2nc(C(F)(F)F)cc2-c2ccc3c(ccc4ccccc43)c2)cc1

residual activity ([1]; compound 1.0 µM): 109%
residual activity ([2]; compound 1.0 µM): 123%
residual activity ([2]; compound 5.0 µM): 113%
residual activity ([3]; compound 1.0 µM): 102%
residual activity ([3]; compound 5.0 µM): 121%
residual activity ([4]; compound 1.0 µM): 112%
residual activity ([4]; compound 5.0 µM): 102%
residual activity ([5]; compound 1.0 µM): 109%
residual activity ([5]; compound 5.0 µM): 106%
residual activity ([6]; compound 1.0 µM): 102%
residual activity ([6]; compound 5.0 µM): 103%
residual activity ([7]; compound 1.0 µM): 115%
residual activity ([7]; compound 5.0 µM): 134%
residual activity ([8]; compound 1.0 µM): 104%
residual activity ([10]; compound 1.0 µM): 88%
residual activity ([10]; compound 5.0 µM): 94%
residual activity ([11]; compound 1.0 µM): 95%
residual activity ([11]; compound 5.0 µM): 115%
residual activity ([12]; compound 1.0 µM): 116%
residual activity ([12]; compound 5.0 µM): 104%
residual activity ([13]; compound 1.0 µM): 106%
residual activity ([13]; compound 5.0 µM): 102%
residual activity ([14]; compound 1.0 µM): 106%
residual activity ([14]; compound 5.0 µM): 99%
residual activity ([15]; compound 1.0 µM): 119%
residual activity ([15]; compound 5.0 µM): 115%
residual activity ([16]; compound 5.0 µM): 98%
residual activity ([17]; compound 1.0 µM): 107%
residual activity ([17]; compound 5.0 µM): 106%
residual activity ([18]; compound 1.0 µM): 93%
residual activity ([18]; compound 5.0 µM): 104%
residual activity ([19]; compound 1.0 µM): 104%
residual activity ([19]; compound 5.0 µM): 99%
residual activity ([20]; compound 1.0 µM): 123%
residual activity ([20]; compound 5.0 µM): 98%
residual activity ([21]; compound 1.0 µM): 72%
residual activity ([21]; compound 5.0 µM): 78%
residual activity ([22]; compound 1.0 µM): 112%
residual activity ([23]; compound 1.0 µM): 108%
residual activity ([23]; compound 5.0 µM): 122%
residual activity ([24]; compound 1.0 µM): 116%
residual activity ([24]; compound 5.0 µM): 98%
residual activity ([25]; compound 1.0 µM): 124%
residual activity ([25]; compound 5.0 µM): 106%
residual activity ([26]; compound 1.0 µM): 104%
residual activity ([26]; compound 5.0 µM): 116%
residual activity ([27]; compound 1.0 µM): 123%
residual activity ([27]; compound 5.0 µM): 113%
residual activity ([28]; compound 5.0 µM): 103%
residual activity ([29]; compound 1.0 µM): 96%
residual activity ([29]; compound 5.0 µM): 93%
residual activity ([30]; compound 1.0 µM): 130%
residual activity ([30]; compound 5.0 µM): 111%
residual activity ([31]; compound 1.0 µM): 93%
residual activity ([31]; compound 5.0 µM): 116%
residual activity ([32]; compound 1.0 µM): 103%
residual activity ([32]; compound 5.0 µM): 115%
residual activity ([33]; compound 1.0 µM): 110%
residual activity ([33]; compound 5.0 µM): 111%
residual activity ([34]; compound 1.0 µM): 104%
residual activity ([34]; compound 5.0 µM): 102%
residual activity ([36]; compound 1.0 µM): 102%
residual activity ([36]; compound 5.0 µM): 94%
residual activity ([35]; compound 1.0 µM): 110%
residual activity ([35]; compound 5.0 µM): 87%
SMILES: C=C1C(=O)OC2C1CC/C(C)=C/CCC1(C)OC21 (stereo unspecified)
